# Biological target: Acetylcholinesterase (Electrophorus electricus, UniProt O42275)
# Assay: Inhibition of electric eel AChE using […] measured every sec for 2 mins by Ellman's method
# Acetylcholinesterase, sequence (O42275 whole entry): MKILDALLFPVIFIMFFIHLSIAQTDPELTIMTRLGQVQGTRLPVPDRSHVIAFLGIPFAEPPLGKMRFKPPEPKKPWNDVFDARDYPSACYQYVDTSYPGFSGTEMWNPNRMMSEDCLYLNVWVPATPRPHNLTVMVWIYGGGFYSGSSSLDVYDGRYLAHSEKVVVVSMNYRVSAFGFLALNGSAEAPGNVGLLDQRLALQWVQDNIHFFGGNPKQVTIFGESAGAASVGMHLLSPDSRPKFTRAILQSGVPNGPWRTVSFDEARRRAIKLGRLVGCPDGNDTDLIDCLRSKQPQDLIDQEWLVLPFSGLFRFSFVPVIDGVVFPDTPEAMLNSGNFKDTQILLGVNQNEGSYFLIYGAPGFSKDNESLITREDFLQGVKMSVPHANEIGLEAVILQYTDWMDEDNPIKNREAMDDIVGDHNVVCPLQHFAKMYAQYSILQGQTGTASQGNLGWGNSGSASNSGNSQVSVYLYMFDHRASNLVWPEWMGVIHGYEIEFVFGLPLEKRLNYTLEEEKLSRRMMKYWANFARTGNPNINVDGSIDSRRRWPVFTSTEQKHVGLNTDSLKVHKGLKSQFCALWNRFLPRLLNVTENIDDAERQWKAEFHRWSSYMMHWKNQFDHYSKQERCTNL
row,Compound,IC50 [µM]
1,COc1cc2c(cc1OC)C(=O)C1(C2)C(c2ccncc2)C2CSCN2C12C(=O)Nc1ccccc12 (stereo not given),0.48
2,COc1cc2c(cc1OC)C(=O)C1(C2)C(c2ccc(F)cc2)C2CSCN2C12C(=O)Nc1ccccc12 (stereo not given),1.12
3,COc1ccc(C2C3CSCN3C3(C(=O)Nc4ccccc43)C23Cc2cc(OC)c(OC)cc2C3=O)cc1OC (stereo not given),6.2
4,COc1cc2c(cc1OC)C(=O)C1(C2)C(c2ccccc2Cl)C2CSCN2C12C(=O)Nc1ccccc12 (stereo not given),8.32
5,COc1cc2c(cc1OC)C(=O)C1(C2)C(c2ccccc2)C2CSCN2C12C(=O)Nc1ccccc12 (stereo not given),5.8
6,COc1cc2c(cc1OC)C(=O)C1(C2)C(c2ccncc2)C2CSCN2C12C(=O)Nc1ccc(Cl)cc12 (stereo not given),0.34
7,COc1cc2c(cc1OC)C(=O)C1(C2)C(c2ccc(F)cc2)C2CSCN2C12C(=O)Nc1ccc(Cl)cc12 (stereo not given),1.56
8,COc1ccc(C2C3CSCN3C3(C(=O)Nc4ccc(Cl)cc43)C23Cc2cc(OC)c(OC)cc2C3=O)cc1OC (stereo not given),2.24
9,COc1cc2c(cc1OC)C(=O)C1(C2)C(c2ccccc2Cl)C2CSCN2C12C(=O)Nc1ccc(Cl)cc12 (stereo not given),3.28
10,COc1cc2c(cc1OC)C(=O)C1(C2)C(c2ccccc2)C2CSCN2C12C(=O)Nc1ccc(Cl)cc12 (stereo not given),2.6
11,COc1cc2c(cc1OC)C(=O)C1(C2)C(c2ccncc2)C2CSCN2C12C(=O)Nc1ccc([N+](=O)[O-])cc12 (stereo not given),0.11
12,COc1cc2c(cc1OC)C(=O)C1(C2)C(c2ccc(F)cc2)C2CSCN2C12C(=O)Nc1ccc([N+](=O)[O-])cc12 (stereo not given),1.16
13,COc1ccc(C2C3CSCN3C3(C(=O)Nc4ccc([N+](=O)[O-])cc43)C23Cc2cc(OC)c(OC)cc2C3=O)cc1OC (stereo not given),2.1
14,COc1cc2c(cc1OC)C(=O)C1(C2)C(c2ccccc2Cl)C2CSCN2C12C(=O)Nc1ccc([N+](=O)[O-])cc12 (stereo not given),2.12
15,COc1cc2c(cc1OC)C(=O)C1(C2)C(c2ccccc2)C2CSCN2C12C(=O)Nc1ccc([N+](=O)[O-])cc12 (stereo not given),3.16

# — ChEMBL document CHEMBL1932918, “AChE inhibitor: a regio- and stereo-selective 1,3-dipolar cycloaddition for the synthesis of novel substituted 5,6-dimethoxy spiro[5.3']-oxindole-spiro-[6.3″]-2,3-dihydro-1H-inden-1″-one-7-(substituted aryl)-tetrahydro-1H-pyrrolo[1,2-c][1,3]thiazole” (Bioorg Med Chem Lett, 2012)
